# Entries after “also recorded” stand apart in the source; their conditions may differ. Read-outs that look alike come from different tables or passages of the source.
# How the values were obtained:
# [1] = system: steroid-induced intraocular pressure (IOP) rise; conditions: for percentage of mean reduction in IOP rise: topical PB 1, 5 and 15 mM analyzed as one group, with Dex, vs Dex+BSS eye
# Method: To explore this hypothesis, trimethylamine N-oxide (TMAO) was tested out using the same steroid-induced glaucoma model in rabbits. […] Fourteen New Zealand albino rabbits (7-week-old male) were divided into 5 groups. The right eyes received topical dexamethasone four times a day followed by topical TMAO (2, 10, 50, 100 and 300 mM) four times a day whereas the left eyes received topical dexamethasone four times a day followed by balanced salt solution, a physiological saline that acted as a control, four times a day.
# Dexamethasone, a commonly used steroid was used in all our experiments. […] Herein, nine 7-week-old male New Zealand albino rabbits were randomly divided into 3 groups and each of them received Dexamethasone (Dex) (MaxiDex containing 0.1% Dex, Alcon) 5 times a day in both eyes. In addition, topical sodium phenylbutyrate (PB) (Triple Crown America/TriButyrate, Inc. Perkasie, Pa.) in concentrations of 1, 5 or 15 mM were applied to their right eyes 5 times a day and a balanced salt solution (BSS), a physiological saline that acted as a control, to their left eyes 5 times a day. Intraocular pressure (IOP) was measured twice a week at an interval of 3-4 days by a masked technician. […] Three time points (days 14, 37 and 53) were chosen for data analysis. […] The mean baseline intraocular pressure (IOP) was 11.5 mmHg for both eyes. The percentage of reduction in IOP rise by PB was defined as (“Mean IOP rise in eyes with Dex+BSS” minus “Mean IOP rise in eyes with Dex+PB”) divided by “Mean IOP rise in eyes with Dex+BSS”×100%.
# FIG. 2B charts show the longitudinal profiles of IOP measurements of individual rabbits receiving Dex+BSS (left eye, diamonds line) and Dex+PB (right eye, squares line) respectively.
# Fourteen 7-week-old male New Zealand albino rabbits received topical dexamethasone (Dex) (MaxiDex containing 0.1% Dex, Alcon) 4 times a day in both eyes.
# [2] = system: trabecular meshwork extracellular matrix; conditions: 14 days
# Method: An experiment was conducted to determine whether sodium phenylbutyrate (PB) could reduce the amount of glycogen and collagen accumulated in the extracellular matrix of the trabecular meshwork. The extracellular protein and collagen substrate deposited on paraffin sections of TM aqueous outflow region were examined in Dex treated and Dex +PB treated rabbit eyes by special periodic acid-Schiff and Masson trichrome histochemical staining The rabbit eyes were paraffin-processed and serially sectioned at a thickness of 5 μm for histochemistry. Sections of (A) untreated control; (B) treated with Dex (0.1%) for 14 days and (C) treated with Dex (0.1%) +PB (0.5mM) for 14 days are shown.
# [3] = system: trabecular meshwork (TM) cells; conditions: for percentage of TM cell loss: 14 days
# Method: The cell density in the TM aqueous outflow region was examined using the Dex and Dex+PB treated rabbit eyes. […] The specimens were paraffin-processed and serially sectioned at a thickness of 5 μm for hematoxylin-eosin histochemistry. […] The number of cells in TM region was quantified and area was measured by Image J software (NIH, US). (D) The cell densities (mean±standard deviation) were compared among the control and treatment groups and P values were calculated by unpaired Student's t-test.
# [4] = system: trabecular meshwork (TM) tissues
# Method: The ultrastructural morphology of rabbit trabecular meshwork (TM) tissues was examined in untreated control eyes, dexamethasone (Dex) (0.1%) treated eyes and Dex+PB (1 mM) treated eyes by transmission electron microscopy. […] The normal rabbit trabecular meshwork is shown in FIGS. 12A and B. It consists of bundles of fine fibers (elastic and collagen fibers) of the trabecular cells (FIG. 12A).
# [5] = system: rabbit eye
# Method: Adult male rabbits (n=13) received topical sodium phenylbutyrate (1 and 5 mM) 4 times a day in both eyes. […] The rabbit eyes were examined by an ophthalmologist on days 7 and 14 in which the rabbits were anesthetized with intramuscular injection of ketamine (75 mg/kg) and xylazine (7.5 mg/kg).
# [6] = system: Y437H mutant myocilin transgene mice; conditions: oral administration; compared to untreated transgene mice; cited from earlier work
# [7] = system: elevated intraocular pressure from steroid-induced IOP rise
# Method: On day 56 when Phase II of the experiment started, topical sodium phenylbutyrate (1 mM), instead of balanced salt solution, was applied to the left eyes of 5 rabbits (FIG. 3).
# [8] = system: steroid-induced IOP rise
# Method: Eight rabbits were studied in this experiment. All their left eyes received Dex+BSS 5 times a day, from day 0 to day 60, the day when the experiment ended (squares line for both Phase I and Phase II). […] The right eyes of 3 randomly-chosen rabbits were treated with Dex+PB (sodium phenylbutyrate, 0.5 mM) eye drops 5 times a day, from day 0 to day 42. […] On day 43, the treatment of the right eyes of the 3 rabbits changed from Dex+PB to topical Dex+BSS. Still, Dex+BSS eye drops were applied 5 times a day, until day 60 when the experiment ended (broken brown line in Phase II).
# [9] = system: cultured human trabecular meshwork (TM) cells; experiment: MTT cell viability/proliferation assay; conditions: PB 0.5 mM and 1 mM, 5 days
# Method: In these tests, cultured human TM cells (7000 cells/ml) were plated in each well in Dulbecco's Modified Eagle medium (DMEM) supplemented with 1000 mg/L glucose, 2% charcoal-stripped fetal bovine serum and antibiotics. They were treated with sodium phenylbutyrate (PB) (0.5, 1 and 5 mM), dexamethasone (Dex) (100 and 500 nM) and a combination of both for 5 days. Using the 3-(4,5-Dimethylthiazol-2-yl)-2,5-diphenyltetrazolium bromide dye (MTT) cell viability/proliferation assay (Invitrogen), the formazan intensity was measured with a multiplate reader at an excitation wavelength of 595 nm and an emission wavelength 610 nm. The mean signal intensity was expressed as a percentage and was compared to the untreated control among treatments.
# [10] = topical 1 and 5 mM 4 times a day
compound,measurement,setting,value
"C[N+](C)(C)[O-] [TMAO, trimethylamine N-oxide]",effect on dexamethasone-induced IOP rise,"[1]; topical TMAO 2 to 300 mM 4 times a day with Dex, study period of 18 days",did not prevent; also recorded: did not prevent or treat
same,IOP difference between Dex+BSS and Dex+TMAO eyes,"[1]; topical TMAO 2 to 300 mM 4 times a day, 18 days",no significant difference
C[C@@H]1C[C@H]2[C@@H]3CCC4=CC(=O)C=C[C@]4(C)[C@@]3(F)[C@@H](O)C[C@]2(C)[C@@]1(O)C(=O)CO [dexamethasone],glycogen deposition in trabecular meshwork (periodic acid-Schiff),[2]; topical dexamethasone 0.1% alone,greater deposition of glycogen
same,collagen deposit in trabecular meshwork (Masson trichrome),"[2]; topical dexamethasone 0.1% alone, vs untreated control",substantially increased
same,reduction of cell density in TM region,"[3]; Dex 0.1% for 14 days, vs untreated control",53%
same,increase in intraocular pressure compared with baseline (day 0),"[1]; day 14, topical 0.1% Dex 4 times a day in both eyes",up to 6 mmHg
same,ultrastructure of trabecular meshwork (electron microscopy),[4]; topical 0.1% dexamethasone for 42 days,deposition of electron dense materials
sodium phenylbutyrate,glycogen deposition in trabecular meshwork (periodic acid-Schiff),[2]; dexamethasone + sodium phenylbutyrate 1mM,greatly reduced
same,collagen deposit in trabecular meshwork (Masson trichrome),[2]; dexamethasone + sodium phenylbutyrate,Reduced collagen stain
same,adverse ocular or systemic effects,[5]; application to the rabbit eye,No adverse ocular or systemic effects
same,change in corneal endothelial cell density (specular microscopy),[5]; [10],did not cause any significant change
same,"slit lamp biomicroscopy with fluorescein staining, defects in conjunctiva or cornea",[5]; [10],did not reveal any defects
same,"systemic signs (diarrhea, paralysis, convulsions/seizures, bleeding, death)","[5]; topical 1 and 5 mM 4 times a day, both eyes, 7-day post-treatment study period","none of them exhibited diarrhea, paralysis, convulsions/seizures, bleeding and/or death"
same,"ocular surface diseases (hyperemia, swelling, inflammation, ulcers, bleeding)","[5]; topical 1 and 5 mM 4 times a day, examined days 7 and 14",No ocular surface (conjunctiva and cornea) diseases
same,percentage of TM cell loss,[3]; Dex 0.1% + PB 0.02 mM,39%
same,percentage of TM cell loss,[3]; Dex 0.1% + PB 0.1 mM,31%
same,percentage of TM cell loss,[3]; Dex 0.1% + PB 0.5 mM,26%
same,effect on glaucoma phenotypes / elevated intraocular pressure,[6],normalization of elevated intraocular pressure
same,mean IOP level,"[7]; day 67, eyes treated with PB 1 mM throughout both phases",15.4 mmHg
same,IOP after treatment,"[7]; day 67, topical 1 mM from day 56 in left eyes previously on Dex+BSS (20.5 mmHg on day 56)",16.6 mmHg
same,reduction in IOP,"[7]; topical 1 mM, treatment period of 11 days (day 56 to day 67)",19%
same,mean percentage of reduction in IOP increase,"[1]; day 14, PB 0.5 mM applied 1 time a day",13.2%
same,mean percentage of reduction in IOP increase,"[1]; day 14, PB 0.5 mM applied 2 times a day",54.4%
same,mean percentage of reduction in IOP increase,"[1]; day 14, PB 0.5 mM applied 4 times a day",57.9%
same,mean percentage of reduction in IOP increase,"[1]; day 14, PB 0.5 mM applied 5 times a day",74.9%
same,reduction in steroid-induced IOP rise,"[1]; day 14, other test doses (of 0.01, 0.1, 0.5, 1, 5, 15 mM), 5 times a day, strong responders",about 50%
same,percentage of mean reduction in IOP rise,"[1]; day 14, 5 times a day",45.0%
same,percentage of mean reduction in IOP rise,"[1]; day 37, 5 times a day",84.7%
same,percentage of mean reduction in IOP rise,"[1]; day 53, 5 times a day",50.0%
same,mean IOP level after cessation of topical PB,"[8]; Phase II, day 43 to day 60",about 16.5 mmHg
same,increase in IOP after cessation of topical PB,"[8]; day 43 to day 60, Dex+BSS after Dex+PB 0.5 mM",less than 2 mmHg
same,IOP at end of experiment,"[8]; day 60, 18 days after cessation of PB",16.6 mmHg
same,duration of suppression of IOP rise after cessation of eyedrops,"[8]; topical PB 0.5 mM 5 times a day to day 42, then Dex+BSS",≤ 18 days
same,"ultrastructure of trabecular meshwork (electron microscopy), deposition of electron dense materials",[4]; dexamethasone with concurrent topical 1 mM sodium phenylbutyrate for 48 days,deposition was not apparent
same,cytotoxicity to trabecular meshwork cells (MTT),[9],not cytotoxic
